Measurements published in patent US5037960A, “Inhibitor of protein synthesis, process for its isolation, its use and pharmaceutical compositions in which it is present” (priority 1986, dated 1991).

Test system: protein synthesis (subcellular fractions of rat liver)
Type: biochemical
Conditions: compared with native trichokirin
From the text: The in vitro protocol uses appropriately complemented subcellular fractions of rat liver capable of incorporating ^14 C-phenylalanine in the presence of an artificial messenger RNA: polyuridylic acid.
The procedure employed for preparing the subcellular fractions and measuring the incorporation of ^14 C-phenylalanine is an adaptation of the method described in BBA 312, 608-615 (1973), using both a microsomal fraction and a cytosol fraction of the rat hepatocytes. The sample containing the trichokirin is introduced in the form of a solution appropriately diluted in a 50 mM tris-HCl buffer, pH 7.6, containing 0.2% of 2-mercaptoethanol and 15 micrograms/ml of bovine serum albumin. The count data are used to calculate, relative to a reference medium without inhibitor, the percentage inhibition of the incorporation of ^14 C-phenylalanine for each reaction medium.
The values obtained together make it possible to determine the concentration of trichokirin (or IC50) which inhibits the incorporation of ^14 C-phenylalanine by 50% under the experimental conditions.

## mercaptosuccinoyl-trichokirin [modified trichokirin]
  effect of the modification on activity: does not cause a significant loss of activity
